The supplement of paper PMC11208160

Assay: recombinant UMI read abundance after kanamycin selection (control-corrected) (log10(CPM+1)); higher = more efficient recombination; extreme values may be limits of the assay; sequences stand for … in AGTGCAGAGAAAATCGGCCAGTTTTCTCTGCCTGCAGTCCGCATGCCGTGGGACCCCTTGGGTTCTAACCTGTTGCCTAGATTTATGCAGCGGACTGCCTTTCTCCCAAAGTGATAAACCGG…AGGTTGGTTTCACT; site = the 11-nt donor
Method in brief: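 The measure is log10(CPM+1) for recombinant UMIs. These were PCR-amplified across the donor–target junction and sequenced after Escherichia coli carrying a donor and donor-binding-loop pair library and a target plasmid with T7-inducible IS621 bridge recombinase was plated on IPTG (0.07 mM) plus kanamycin or unselected. CPM were averaged over two replicates and scaled by control-derived factors.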
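Further: IS621 bridge recombinase in Escherichia coli cells against a fixed T5 target plasmid.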

| Sequence | recombinant UMI read abundance (log10) |
| --- | --- |
| GCCTCGCCATGGACCGGTTTTCCCGGTAATCCGTATTTGTA (site GCCACGCCTTA) | 0.00387 |
| GCCTCGCCATGGACCGGTTTTCCCGGTAATCCGTATTTGTA (site GCCCCGCCTTA) | 0.633 |
| GCCTCGCCATGGACCGGTTTTCCCGGTAATCCGTATTTGTA (site GCCGCGCCTTA) | 0.00878 |
| GCCTCGCCATGGACCGGTTTTCCCGGTAATCCGTATTTGTA (site GCCTCGCCTTA) | 0.0151 |
| GCCTGAACATGGACCGGTTTTCCCGGTAATCCGTATTTGCA (site GCCTGAACTTG) | 2.12 |
| GCCTTATCATGGACCGGTTTTCCCGGTAATCCGTATTTGAA (site GCCTTATCTTT) | 0.731 |
| GCGAAAACATGGACCGGTTTTCCCGGTAATCCGTATTTGCG (site GCGAAAACTAG) | 0 |
| GCGAAAACATGGACCGGTTTTCCCGGTAATCCGTATTTGCG (site GCGAAAACTCG) | 2.63 |
| GCGAAAACATGGACCGGTTTTCCCGGTAATCCGTATTTGCG (site GCGAAAACTGG) | 0 |
| GCGAAAACATGGACCGGTTTTCCCGGTAATCCGTATTTGCG (site GCGAAAACTTG) | 0 |
| GCGAAAACATGGACCGGTTTTCCCGGTAATCCGTATTTGGT (site GCGAAAACTAA) | 0.0141 |
| GCGAAAACATGGACCGGTTTTCCCGGTAATCCGTATTTGGT (site GCGAAAACTAC) | 1.58 |
| GCGAAAACATGGACCGGTTTTCCCGGTAATCCGTATTTGGT (site GCGAAAACTAG) | 0 |
| GCGAAAACATGGACCGGTTTTCCCGGTAATCCGTATTTGGT (site GCGAAAACTAT) | 0 |
| GCGAAAGCATGGACCGGTTTTCCCGGTAATCCGTATTTGCT (site GCGAAAACTAG) | 0 |
| GCGAAAGCATGGACCGGTTTTCCCGGTAATCCGTATTTGCT (site GCGAAACCTAG) | 0 |
| GCGAAAGCATGGACCGGTTTTCCCGGTAATCCGTATTTGCT (site GCGAAAGCTAG) | 1.01 |
| GCGAAAGCATGGACCGGTTTTCCCGGTAATCCGTATTTGCT (site GCGAAATCTAG) | 0 |
| GCGAACACATGGACCGGTTTTCCCGGTAATCCGTATTTGCT (site GCGAAAACTAG) | 0 |
| GCGAACACATGGACCGGTTTTCCCGGTAATCCGTATTTGCT (site GCGAACACTAG) | 1.91 |
| GCGAACACATGGACCGGTTTTCCCGGTAATCCGTATTTGCT (site GCGAAGACTAG) | 0 |
| GCGAACACATGGACCGGTTTTCCCGGTAATCCGTATTTGCT (site GCGAATACTAG) | 0.025 |
| GCGAAGCCATGGACCGGTTTTCCCGGTAATCCGTATTTGTG (site GCGAAGCCTCA) | 0.643 |
| GCGAAGCCATGGACCGGTTTTCCCGGTAATCCGTATTTGTG (site GCGAAGCCTCC) | 0.021 |
| GCGAAGCCATGGACCGGTTTTCCCGGTAATCCGTATTTGTG (site GCGAAGCCTCG) | 0.0255 |

| Sequence | recombinant UMI read abundance (log10) |
| --- | --- |
| GCGAAGCCATGGACCGGTTTTCCCGGTAATCCGTATTTGTG (site GCGAAGCCTCT) | 1.98 |
| GCGAAGCCATGGACCGGTTTTCCCGGTAATCCGTATTTGTT (site GCGAAGCCTAA) | 1.14 |
| GCGACAACATGGACCGGTTTTCCCGGTAATCCGTATTTGCT (site GCGAAAACTAG) | 0 |
| GCGACAACATGGACCGGTTTTCCCGGTAATCCGTATTTGCT (site GCGACAACTAG) | 1.97 |
| GCGACAACATGGACCGGTTTTCCCGGTAATCCGTATTTGCT (site GCGAGAACTAG) | 0 |
| GCGACAACATGGACCGGTTTTCCCGGTAATCCGTATTTGCT (site GCGATAACTAG) | 0.37 |
| GCGACAACATGGACCGGTTTTCCCGGTAATCCGTATTTGGT (site GCGACAACTAC) | 2.46 |
| GCGATTCCATGGACCGGTTTTCCCGGTAATCCGTATTTGTC (site GCGATTCCTGA) | 1.78 |
| GCGCAGCCATGGACCGGTTTTCCCGGTAATCCGTATTTGGG (site GCGAAGCCTCC) | 0.0174 |
| GCGCAGCCATGGACCGGTTTTCCCGGTAATCCGTATTTGGG (site GCGCAGCCTCC) | 0.00363 |
| GCGCAGCCATGGACCGGTTTTCCCGGTAATCCGTATTTGGG (site GCGGAGCCTCC) | 0.0138 |
| GCGCAGCCATGGACCGGTTTTCCCGGTAATCCGTATTTGGG (site GCGTAGCCTCC) | 0.0296 |
| GCGCCCTCATGGACCGGTTTTCCCGGTAATCCGTATTTGAC (site GCGCCCTCTGT) | 2.76 |
| GCGCCGGCATGGACCGGTTTTCCCGGTAATCCGTATTTGTG (site GCGCCGGCTCA) | 0.015 |
| GCGCTCTCATGGACCGGTTTTCCCGGTAATCCGTATTTGCT (site GCGCTCTCTAG) | 2.75 |
| GCGGAGTCATGGACCGGTTTTCCCGGTAATCCGTATTTGTT (site GCGGAGTCTAA) | 3.15 |
| GCGTATGCATGGACCGGTTTTCCCGGTAATCCGTATTTGTA (site GCGTATGCTTA) | 2.99 |
| GCGTGACCATGGACCGGTTTTCCCGGTAATCCGTATTTGCA (site GCGTGACCTTG) | 0.00644 |
| GCGTGGTCATGGACCGGTTTTCCCGGTAATCCGTATTTGGC (site GCGTGGTCTGC) | 2.06 |
| GCGTTGACATGGACCGGTTTTCCCGGTAATCCGTATTTGAG (site GCGTTGACTCT) | 1.98 |
| GCGTTGACATGGACCGGTTTTCCCGGTAATCCGTATTTGCA (site GCGTTGACTTG) | 2.59 |
| GCTAATGCATGGACCGGTTTTCCCGGTAATCCGTATTTGCC (site GCTAATGCTGG) | 0 |
| GCTAATGCATGGACCGGTTTTCCCGGTAATCCGTATTTGCC (site GCTACTGCTGG) | 0 |
| GCTAATGCATGGACCGGTTTTCCCGGTAATCCGTATTTGCC (site GCTAGTGCTGG) | 0 |
| GCTAATGCATGGACCGGTTTTCCCGGTAATCCGTATTTGCC (site GCTATTGCTGG) | 0 |

| Sequence | recombinant UMI read abundance (log10) |
| --- | --- |
| GCTACCCCATGGACCGGTTTTCCCGGTAATCCGTATTTGTG (site GCTACCCCTCA) | 0.013 |
| GCTACCGCATGGACCGGTTTTCCCGGTAATCCGTATTTGCA (site GCTACCGCTTG) | 2.13 |
| GCTACCTCATGGACCGGTTTTCCCGGTAATCCGTATTTGCG (site GCTACCTCTCG) | 1.22 |
| GCTACGGCATGGACCGGTTTTCCCGGTAATCCGTATTTGCC (site GCTACAGCTGG) | 0 |
| GCTACGGCATGGACCGGTTTTCCCGGTAATCCGTATTTGCC (site GCTACCGCTGG) | 0 |
| GCTACGGCATGGACCGGTTTTCCCGGTAATCCGTATTTGCC (site GCTACGGCTGG) | 0.761 |
| GCTACGGCATGGACCGGTTTTCCCGGTAATCCGTATTTGCC (site GCTACTGCTGG) | 0 |
| GCTACTACATGGACCGGTTTTCCCGGTAATCCGTATTTGCC (site GCTACTACTGG) | 0 |
| GCTACTACATGGACCGGTTTTCCCGGTAATCCGTATTTGCC (site GCTACTCCTGG) | 0 |
| GCTACTACATGGACCGGTTTTCCCGGTAATCCGTATTTGCC (site GCTACTGCTGG) | 0 |
| GCTACTACATGGACCGGTTTTCCCGGTAATCCGTATTTGCC (site GCTACTTCTGG) | 0 |
| GCTACTGCATGGACCGGTTTTCCCGGTAATCCGTATTTGAC (site GCTACTGCTGA) | 0 |
| GCTACTGCATGGACCGGTTTTCCCGGTAATCCGTATTTGAC (site GCTACTGCTGC) | 0 |
| GCTACTGCATGGACCGGTTTTCCCGGTAATCCGTATTTGAC (site GCTACTGCTGG) | 0 |
| GCTACTGCATGGACCGGTTTTCCCGGTAATCCGTATTTGAC (site GCTACTGCTGT) | 2.07 |
| GCTACTTCATGGACCGGTTTTCCCGGTAATCCGTATTTGCC (site GCTACTACTGG) | 0 |
| GCTACTTCATGGACCGGTTTTCCCGGTAATCCGTATTTGCC (site GCTACTCCTGG) | 0 |
| GCTACTTCATGGACCGGTTTTCCCGGTAATCCGTATTTGCC (site GCTACTGCTGG) | 0 |
| GCTACTTCATGGACCGGTTTTCCCGGTAATCCGTATTTGCC (site GCTACTTCTGG) | 1.34 |
| GCTAGAGCATGGACCGGTTTTCCCGGTAATCCGTATTTGTA (site GCTAGAGCTTA) | 2.58 |
| GCTAGGGCATGGACCGGTTTTCCCGGTAATCCGTATTTGTT (site GCTAGGGCTAA) | 1.53 |
| GCTCGCCCATGGACCGGTTTTCCCGGTAATCCGTATTTGAT (site GCTAGCCCTAT) | 0.0115 |
| GCTCGCCCATGGACCGGTTTTCCCGGTAATCCGTATTTGAT (site GCTCGCCCTAT) | 0.567 |
| GCTCGCCCATGGACCGGTTTTCCCGGTAATCCGTATTTGAT (site GCTGGCCCTAT) | 0.019 |
| GCTCGCCCATGGACCGGTTTTCCCGGTAATCCGTATTTGAT (site GCTTGCCCTAT) | 0.00792 |
